Results on eight compounds are retold here after BindingDB's records for doi:10.1021/jm040037k (Abbott Laboratories, 2004).

Square brackets hold non-standard residues; d marks the D form. Peptide text beside a SMILES is read from it. * marks the point of attachment. Tle = CC(C)(C)[C@H](N)C(=O)O; NMeA = CN[C@@H](C)C(=O)O; βNA = c1ccc2cc(N*)ccc2c1 Some results are limits rather than exact numbers.

T1 sequence (P98170 241-356): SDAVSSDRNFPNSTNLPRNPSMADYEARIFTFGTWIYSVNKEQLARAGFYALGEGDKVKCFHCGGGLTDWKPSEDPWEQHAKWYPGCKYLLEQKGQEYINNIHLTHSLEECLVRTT

This experiment addresses T1, E3 ubiquitin-protein ligase XIAP [241-356] (Homo sapiens, UniProt P98170).
T1 construct: 241-356
As to the kind of experiment: Ligand Binding Assay. The settings on record: pH 7.4; 22 °C. How it is done:
A fluorescence polarization anisotropy (FPA) competition assay was used to determine the affinities of compounds to BIR3 protein. Fluorescence polarization measurements were carried out on an Analyst 96-well plate reader. 6-Carboxyfluorescein (FAM) labeled peptides with the sequences AVPIAQK (FAM)-NH2 was used as a probe. Dissociation constants were determined from titration curves with in-house written software.
On to `C[C@@H](C(=O)N[C@H](C(=O)N1CCC[C@H]1C(=O)N[C@@H]1CCCc2ccccc21)C(C)(C)C)N(C)C` [(2S)-1-[(2S)-2-[(2S)-2-(dimethylamino)propanamido]-3,3-dimethylbutanoyl]-N-[(1R)-1,2,3,4-tetrahydronaphthalen-1-yl]pyrrolidine-2-carboxamide], for which the Kd was above 1000 nM. The same measure for `C[C@@H](C(=O)N[C@H](C(=O)N1CCC[C@H]1C(=O)N[C@@H]1CCCc2ccccc21)C1CCCCC1)N(C)C` [(2S)-1-[(2S)-2-cyclohexyl-2-[(2S)-2-(dimethylamino)propanamido]acetyl]-N-[(1R)-1,2,3,4-tetrahydronaphthalen-1-yl]pyrrolidine-2-carboxamide]: above 1000 nM; for `CN[C@@H](C)C(=O)N[C@H](C(=O)N1CCC[C@H]1C(=O)Nc1ccc2ccccc2c1)C(C)(C)C` [(2S)-1-[(2S)-3,3-dimethyl-2-[(2S)-2-(methylamino)propanamido]butanoyl]-N-(naphthalen-2-yl)pyrrolidine-2-carboxamide] (H-[NMeA]-[Tle]-Pro-βNA): above 1000 nM; for `CN[C@@H](C)C(=O)N[C@H](C(=O)N1CCC[C@H]1C(=O)N[C@@H]1CCc2ccccc21)C(C)(C)C` [(2S)-N-[(1R)-2,3-dihydro-1H-inden-1-yl]-1-[(2S)-3,3-dimethyl-2-[(2S)-2-(methylamino)propanamido]butanoyl]pyrrolidine-2-carboxamide]: 29 nM.

With `C[C@@H](C(=O)N[C@H](C(=O)N1C[C@@H](Oc2ccccc2)C[C@H]1C(=O)N[C@@H]1CCCc2ccccc21)C(C)(C)C)N(C)C` [(2S,4S)-1-[(2S)-2-[(2S)-2-(dimethylamino)propanamido]-3,3-dimethylbutanoyl]-4-phenoxy-N-[(1R)-1,2,3,4-tetrahydronaphthalen-1-yl]pyrrolidine-2-carboxamide], the Kd was above 1000 nM. To `CN[C@@H](C)C(=O)N[C@H](C(=O)N1CCC[C@H]1C(=O)N[C@H]1CCc2ccccc21)C(C)(C)C` [H-N-Me-Ala-Tle-Pro-(S)-indan-1-yl Amide] belongs above 1000 nM.

Take `CN[C@@H](C)C(=O)N[C@H](C(=O)N1CCC[C@H]1C(=O)NC1c2ccccc2-c2ccccc21)C(C)(C)C` [H-N-Me-Ala-Tle-Pro-fluoren-9-yl Amide]: binding was put at a Kd of 47 nM. `CN[C@@H](C)C(=O)N[C@H](C(=O)N1CCC[C@H]1C(=O)Nc1cccc2ccccc12)C(C)(C)C` [H-N-Me-Ala-Tle-Pro-naphth-1-yl Amide] displayed a Kd above 500 nM.
